Reference: patent US20250145600A1, “2-((4-((S)-2-(4-CHLORO-2-FLUOROPHENYL)-2-METHYLBENZO[D][1,3]DIOXOL-4-YL)PIPERIDIN-1-YL)METHYL)-1-(((S)-OXETAN-2-YL)METHYL)-1H-IMIDAZOLE DERIVATIVES AS ACTIVATORS OF THE GLP1 RECEPTOR FOR THE TREATMENT OF OBESITY” (Novartis AG, priority 2022, published 2025)

Molecular target: human GLP1R (Homo sapiens, UniProt P43220)
Assay: Human GLP1R DERET internalization assay
Type: cell-based
Conditions: HEK293-SNAP-hGLP1R-GloSensor cells; for EC50: top concentration 30 μM; for Emax: relative to GLP1(7-36)
Protocol: Compounds of formula (I) according to the invention were tested in the following cellular assays that measure the intracellular cAMP concentration, beta-arrestin recruitment and receptor internalization. The cAMP is generated by the activation of GLP1R. The extent to which the GLP1R is internalized into the cell and away from the plasma membrane following activation is also shown in Table 2. EC50 for each assay is defined as the concentration of the compound that leads to half of the maximum response (after baseline correction). Emax is defined as the maximum response observed for the test compound, normalized to the maximum response observed for the endogenous ligand (GLP1(7-36)) to GLP1R.
Human GLP1R DERET Internalization Assay
The extent to which agonists internalize the human GLP1R was determined based on an optimized version of a RealTime FRET-based ‘DERET’ (Dissociation Enhanced Resonance Energy Transfer) assay. The technology relies on labeling of the SNAP-tagged GPCR with a SNAP-Lumi-Terbium (donor fluorophore, Cisbio, cat #SSNPTBD). The compounds are incubated with the cells over-expressing the GPCR of interest in the presence of an excess of fluorescein (acceptor fluorophore). When the GPCR is on the cell surface, the donor signal is quenched by the acceptor and the donor/acceptor ratio is low. As the GPCR internalizes, the donor signal is no longer quenched, and the acceptor is no longer excited so the donor/acceptor ratio increases.
HEK293-SNAP-hGLP1R-GloSensor cells (stably overexpressing SNAP-tagged hGLP1R) were seeded overnight in white 384-well poly-D-Lysine coated plates (Greiner Bio One, cat #781945) in regular DMEM growth medium (Gibco, cat #11965-092, 10% heat-inactivated FBS, 10 mM HEPES, 1× penicillin/streptomycin, 0.5 mg/mL geneticin (Gibco, cat #10131-035) and 0.25 mg/mL hygromycin B (Invitrogen, cat #10687010). On the assay day, cell medium was removed and 100 nM SNAP-Lumi-Tb reagent was added in Opti-MEM solution. The cells were incubated at 37° C. for 1 h. Cells were washed using a plate washer in assay buffer [1×HBSS (10× Gibco, cat #14065-056), 20 mM Hepes (Gibco, cat #15630-080), 1 mM CaCl2 (Fluka, cat #21114-1L), 1 mM MgCl2 (Ambion, cat #AM9530G) pH7.4], and 20 μL buffer with 0.1% BSA was added to each well. After leaving cells to equilibrate for […] at 37° C., 10 μL of Fluorescein (sodium salt, Sigma, cat #F6377, diluted in buffer) was added at 25 μM final concentration. To generate triplicate dose response curves, compounds were serially diluted 3-fold in assay buffer, then added to the cell assay plate to a final volume of 40 μL and final top concentrations starting at 30 μM. In the same plate and assay buffer as the tested compounds, a GLP1 (7-36) peptide (Bachem, cat #H-6795) control curve was included at a final top concentration of 1 μM in order to establish EC100. EC0 wells with buffer only were also included. The plate FRET fluorescence was measured immediately using a Perkin Elmer Envision with LANCE/DELFIA D400 single mirror, excitation filter X320, and emission filters M615_203 (donor emission) and M515 (acceptor emission), and then measured every 30 min. […] Plates were kept at 37° C. between reads. Data was expressed as the ratio of donor/acceptor emissions using Microsoft Excel and plotted in GraphPad Prism. In order to determine EC50 and Emax for internalization, data was calculated and expressed as percent of the GLP1 (7-36) EC100 control wells: [(sample signal−mean EC0 signal)/(mean EC100 of GLP1 (7-36) signal−mean EC0 signal)]*100 using Microsoft Excel. Curve fitting for EC50 determinations was performed using GraphPad Prism. The 4-parameter logistic model, Hill slope was used:
where Y is the functional response; X is the compound concentration; bottom is A0 or the minimum value (at 0 dose); top is Ainf or the maximum value (at infinite dose); EC50 is the point of inflection (i.e. the point on the sigmoid shaped curve halfway between A0 and Ainf). […]

Sequence of human GLP1R (P43220 24-463): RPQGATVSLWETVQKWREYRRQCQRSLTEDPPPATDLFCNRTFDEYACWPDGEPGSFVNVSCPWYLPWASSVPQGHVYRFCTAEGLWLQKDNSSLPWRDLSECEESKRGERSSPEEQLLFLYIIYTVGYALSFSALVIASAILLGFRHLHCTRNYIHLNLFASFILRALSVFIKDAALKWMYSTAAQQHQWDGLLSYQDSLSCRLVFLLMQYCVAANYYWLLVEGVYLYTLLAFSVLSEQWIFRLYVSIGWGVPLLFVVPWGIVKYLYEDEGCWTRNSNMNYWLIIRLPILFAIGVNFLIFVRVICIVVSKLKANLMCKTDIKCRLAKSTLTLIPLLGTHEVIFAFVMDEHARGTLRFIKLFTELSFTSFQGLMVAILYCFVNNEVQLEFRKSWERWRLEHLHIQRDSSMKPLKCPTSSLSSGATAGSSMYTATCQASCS

| SMILES | EC50 [µM] | Emax [%] |
| --- | --- | --- |
| Cc1nc(CN2CCC(c3cccc4c3O[C@@](C)(c3ccc(Cl)cc3F)O4)CC2)n(C[C@@H]2CCO2)c1-c1nc(C(=O)O)c(C)o1 [Compound C-1, 2-(2-((4-((S)-2-(4-chloro-2-fluorophenyl)-2-methylbenzo[d][1,3]dioxol-4-yl)piperidin-1-yl)methyl)-4-methyl-1-(((S)-oxetan-2-yl)methyl)-1H-imidazol-5-yl)-5-methyloxazole-4-carboxylic acid] | > 30 | 8 |
| C[C@]1(c2ccc(Cl)cc2F)Oc2cccc(C3CCN(Cc4nc(C(F)(F)F)c(-c5nc(C(=O)O)co5)n4C[C@@H]4CCO4)CC3)c2O1 [Compound C-4, 2-(2-((4-((S)-2-(4-chloro-2-fluorophenyl)-2-methylbenzo[d][1,3]dioxol-4-yl)piperidin-1-yl)methyl)-1-(((S)-oxetan-2-yl)methyl)-4-(trifluoromethyl)-1H-imidazol-5-yl)oxazole-4-carboxylic acid] | > 30 | 1 |
| CCc1nc(CN2CCC(c3cccc4c3O[C@@](C)(c3ccc(Cl)cc3F)O4)CC2)n(C[C@@H]2CCO2)c1-c1nc(C(=O)O)co1 [Compound C-5, 2-(2-((4-((S)-2-(4-chloro-2-fluorophenyl)-2-methylbenzo[d][1,3]dioxol-4-yl)piperidin-1-yl)methyl)-4-ethyl-1-(((S)-oxetan-2-yl)methyl)-1H-imidazol-5-yl)oxazole-4-carboxylic acid] | > 30 | 6 |
| CCc1nc(CN2CCC(c3cccc4c3O[C@@](C)(c3ccc(Cl)cc3F)O4)CC2)n(C[C@H]2CCO2)c1-c1nc(C(=O)O)co1 [Compound C-7, 2-(2-((4-((S)-2-(4-chloro-2-fluorophenyl)-2-methylbenzo[d][1,3]dioxol-4-yl)piperidin-1-yl)methyl)-4-ethyl-1-(((R)-oxetan-2-yl)methyl)-1H-imidazol-5-yl)oxazole-4-carboxylic acid] | 0.03 | 51 |
| Cc1nc(CN2CCC(c3cccc4c3O[C@@](C)(c3ccc(Cl)cc3F)O4)CC2)n(C[C@@H]2CCO2)c1-c1nc(C(=O)O)co1 [Compound C-9, 2-(2-((4-((S)-2-(4-chloro-2-fluorophenyl)-2-methylbenzo[d][1,3]dioxol-4-yl)piperidin-1-yl)methyl)-4-methyl-1-(((S)-oxetan-2-yl)methyl)-1H-imidazol-5-yl)oxazole-4-carboxylic acid] | > 30 | 11 |
| CCc1oc(-c2c(C)nc(CN3CCC(c4cccc5c4O[C@@](C)(c4ccc(Cl)cc4F)O5)CC3)n2C[C@@H]2CCO2)nc1C(=O)O [Compound C-10, 2-(2-((4-((S)-2-(4-chloro-2-fluorophenyl)-2-methylbenzo[d][1,3]dioxol-4-yl)piperidin-1-yl)methyl)-4-methyl-1-(((S)-oxetan-2-yl)methyl)-1H-imidazol-5-yl)-5-ethyloxazole-4-carboxylic acid] | > 30 | 7 |
| Cc1oc(-c2nc(CN3CCC(c4cccc5c4O[C@@](C)(c4ccc(Cl)cc4F)O5)CC3)n(C[C@@H]3CCO3)c2C)nc1C(=O)O [Compound C-12, 2-(2-((4-((S)-2-(4-chloro-2-fluorophenyl)-2-methylbenzo[d][1,3]dioxol-4-yl)piperidin-1-yl)methyl)-5-methyl-1-(((S)-oxetan-2-yl)methyl)-1H-imidazol-4-yl)-5-methyloxazole-4-carboxylic acid] | > 30 | 45 |
| Cc1c(-c2nc(C(=O)O)co2)nc(CN2CCC(c3cccc4c3O[C@@](C)(c3ccc(Cl)cc3F)O4)CC2)n1C[C@@H]1CCO1 [Compound C-13, 2-(2-((4-((S)-2-(4-chloro-2-fluorophenyl)-2-methylbenzo[d][1,3]dioxol-4-yl)piperidin-1-yl)methyl)-5-methyl-1-(((S)-oxetan-2-yl)methyl)-1H-imidazol-4-yl)oxazole-4-carboxylic acid] | 1.28 | 42 |
| Cc1c(-c2nc(C(F)(F)F)c(C(=O)O)o2)nc(CN2CCC(c3cccc4c3O[C@@](C)(c3ccc(Cl)cc3F)O4)CC2)n1C[C@@H]1CCO1 [Compound C-14, 2-(2-((4-((S)-2-(4-chloro-2-fluorophenyl)-2-methylbenzo[d][1,3]dioxol-4-yl)piperidin-1-yl)methyl)-5-methyl-1-(((S)-oxetan-2-yl)methyl)-1H-imidazol-4-yl)-4-(trifluoromethyl)oxazole-5-carboxylic acid] | > 30 | 20 |
| Cc1c(-c2cnc(C(=O)O)o2)nc(CN2CCC(c3cccc4c3O[C@@](C)(c3ccc(Cl)cc3F)O4)CC2)n1C[C@@H]1CCO1 [Compound C-16, 5-(2-((4-((S)-2-(4-chloro-2-fluorophenyl)-2-methylbenzo[d][1,3]dioxol-4-yl)piperidin-1-yl)methyl)-5-methyl-1-(((S)-oxetan-2-yl)methyl)-1H-imidazol-4-yl)oxazole-2-carboxylic acid] | 2.94 | 50 |
| Cc1c(-c2cc(C(=O)O)n(C)n2)nc(CN2CCC(c3cccc4c3O[C@@](C)(c3ccc(Cl)cc3F)O4)CC2)n1C[C@@H]1CCO1 [Compound C-17, 3-(2-((4-((S)-2-(4-chloro-2-fluorophenyl)-2-methylbenzo[d][1,3]dioxol-4-yl)piperidin-1-yl)methyl)-5-methyl-1-(((S)-oxetan-2-yl)methyl)-1H-imidazol-4-yl)-1-methyl-1H-pyrazole-5-carboxylic acid] | > 30 | 6 |
| Cc1c(-c2coc(C(=O)O)n2)nc(CN2CCC(c3cccc4c3O[C@@](C)(c3ccc(Cl)cc3F)O4)CC2)n1C[C@@H]1CCO1 [Compound C-18, 4-(2-((4-((S)-2-(4-chloro-2-fluorophenyl)-2-methylbenzo[d][1,3]dioxol-4-yl)piperidin-1-yl)methyl)-5-methyl-1-(((S)-oxetan-2-yl)methyl)-1H-imidazol-4-yl)oxazole-2-carboxylic acid] | 2.38 | 86 |
| Cc1cc(-c2nc(CN3CCC(c4cccc5c4O[C@@](C)(c4ccc(Cl)cc4F)O5)CC3)n(C[C@@H]3CCO3)c2C)oc1C(=O)O [Compound C-19, 5-(2-((4-((S)-2-(4-chloro-2-fluorophenyl)-2-methylbenzo[d][1,3]dioxol-4-yl)piperidin-1-yl)methyl)-5-methyl-1-(((S)-oxetan-2-yl)methyl)-1H-imidazol-4-yl)-3-methylfuran-2-carboxylic acid] | > 30 | 34 |
| Cc1nc(CN2CCC(c3cccc4c3O[C@@](C)(c3ccc(Cl)cc3F)O4)CC2)n(C[C@@H]2CCO2)c1-c1coc(C(=O)O)n1 [Compound C-20, 4-(2-((4-((S)-2-(4-chloro-2-fluorophenyl)-2-methylbenzo[d][1,3]dioxol-4-yl)piperidin-1-yl)methyl)-4-methyl-1-(((S)-oxetan-2-yl)methyl)-1H-imidazol-5-yl)oxazole-2-carboxylic acid] | > 30 | 5 |
| Cc1nc(CN2CCC(c3cccc4c3O[C@@](C)(c3ccc(Cl)cc3F)O4)CC2)n(C[C@@H]2CCO2)c1-c1cc(C(=O)O)n(C)n1 [Compound C-21, 3-(2-((4-((S)-2-(4-chloro-2-fluorophenyl)-2-methylbenzo[d][1,3]dioxol-4-yl)piperidin-1-yl)methyl)-4-methyl-1-(((S)-oxetan-2-yl)methyl)-1H-imidazol-5-yl)-1-methyl-1H-pyrazole-5-carboxylic acid] | > 30 | 2 |
